Assay results from patent US20070191291A1, “Compound antibacterial drugs comprising n-acetyl-d-glucosamine” (priority 2003, published 2007).

System: E. coli
Test: Test Example 1: inducing E. coli CGC with N-acetyl-D-glucosamine and antibiotics in different ratios (K-B method, microscopy)
Assay type: cell-based

CC(=O)N[C@@H]1[C@@H](O)[C@H](O)[C@@H](CO)O[C@H]1O [Compound (I), N-acetyl-D-glucosamine]
CGC formation (Compound (I) 10 mg, aminoglycoside (kanamycin, gentamycin) 50 mg): − (if cell length was not greater than 50 μm and cell number was within the range from 0 to 4 in each visual field, it was deemed as CGC negative and was marked with “−”)
CGC formation (Compound (I) 10 mg, aminoglycoside (kanamycin, gentamycin) 100 mg): + (If cell length was more than 50 μm and cell number was more than 5 in each visual field, it was deemed as CGC positive and was marked with “+”)
CGC formation (Compound (I) 10 mg, aminoglycoside (kanamycin, gentamycin) 150 mg): + (If cell length was more than 50 μm and cell number was more than 5 in each visual field, it was deemed as CGC positive and was marked with “+”)
CGC formation (Compound (I) 10 mg, aminoglycoside (kanamycin, gentamycin) 200 mg): + (If cell length was more than 50 μm and cell number was more than 5 in each visual field, it was deemed as CGC positive and was marked with “+”)
CGC formation (Compound (I) 10 mg, aminoglycoside (kanamycin, gentamycin) 300 mg): + (If cell length was more than 50 μm and cell number was more than 5 in each visual field, it was deemed as CGC positive and was marked with “+”)
CGC formation (Compound (I) 10 mg, aminoglycoside (kanamycin, gentamycin) 400 mg): + (If cell length was more than 50 μm and cell number was more than 5 in each visual field, it was deemed as CGC positive and was marked with “+”)
CGC formation (Compound (I) 10 mg, aminoglycoside (kanamycin, gentamycin) 500 mg): + (If cell length was more than 50 μm and cell number was more than 5 in each visual field, it was deemed as CGC positive and was marked with “+”)
CGC formation (Compound (I) 10 mg, macrolide (spiramycin) 300 mg): − (if cell length was not greater than 50 μm and cell number was within the range from 0 to 4 in each visual field, it was deemed as CGC negative and was marked with “−”)
CGC formation (Compound (I) 10 mg, macrolide (spiramycin) 500 mg): + (If cell length was more than 50 μm and cell number was more than 5 in each visual field, it was deemed as CGC positive and was marked with “+”)
CGC formation (Compound (I) 10 mg, macrolide (spiramycin) 700 mg): + (If cell length was more than 50 μm and cell number was more than 5 in each visual field, it was deemed as CGC positive and was marked with “+”)
CGC formation (Compound (I) 10 mg, macrolide (spiramycin) 900 mg): + (If cell length was more than 50 μm and cell number was more than 5 in each visual field, it was deemed as CGC positive and was marked with “+”)
CGC formation (Compound (I) 10 mg, macrolide (spiramycin) 1100 mg): + (If cell length was more than 50 μm and cell number was more than 5 in each visual field, it was deemed as CGC positive and was marked with “+”)
CGC formation (Compound (I) 10 mg, macrolide (spiramycin) 1300 mg): + (If cell length was more than 50 μm and cell number was more than 5 in each visual field, it was deemed as CGC positive and was marked with “+”)
CGC formation (Compound (I) 10 mg, macrolide (spiramycin) 1500 mg): + (If cell length was more than 50 μm and cell number was more than 5 in each visual field, it was deemed as CGC positive and was marked with “+”)
CGC formation (Compound (I) 50 mg, aminoglycoside (kanamycin, gentamycin) 50 mg): − (if cell length was not greater than 50 μm and cell number was within the range from 0 to 4 in each visual field, it was deemed as CGC negative and was marked with “−”)
CGC formation (Compound (I) 50 mg, aminoglycoside (kanamycin, gentamycin) 100 mg): − (if cell length was not greater than 50 μm and cell number was within the range from 0 to 4 in each visual field, it was deemed as CGC negative and was marked with “−”)
CGC formation (Compound (I) 50 mg, aminoglycoside (kanamycin, gentamycin) 150 mg): + (If cell length was more than 50 μm and cell number was more than 5 in each visual field, it was deemed as CGC positive and was marked with “+”)
CGC formation (Compound (I) 50 mg, aminoglycoside (kanamycin, gentamycin) 200 mg): + (If cell length was more than 50 μm and cell number was more than 5 in each visual field, it was deemed as CGC positive and was marked with “+”)
CGC formation (Compound (I) 50 mg, aminoglycoside (kanamycin, gentamycin) 300 mg): + (If cell length was more than 50 μm and cell number was more than 5 in each visual field, it was deemed as CGC positive and was marked with “+”)
CGC formation (Compound (I) 50 mg, aminoglycoside (kanamycin, gentamycin) 400 mg): + (If cell length was more than 50 μm and cell number was more than 5 in each visual field, it was deemed as CGC positive and was marked with “+”)
CGC formation (Compound (I) 50 mg, aminoglycoside (kanamycin, gentamycin) 500 mg): + (If cell length was more than 50 μm and cell number was more than 5 in each visual field, it was deemed as CGC positive and was marked with “+”)
CGC formation (Compound (I) 50 mg, macrolide (spiramycin) 300 mg): − (if cell length was not greater than 50 μm and cell number was within the range from 0 to 4 in each visual field, it was deemed as CGC negative and was marked with “−”)
CGC formation (Compound (I) 50 mg, macrolide (spiramycin) 500 mg): − (if cell length was not greater than 50 μm and cell number was within the range from 0 to 4 in each visual field, it was deemed as CGC negative and was marked with “−”)
CGC formation (Compound (I) 50 mg, macrolide (spiramycin) 700 mg): + (If cell length was more than 50 μm and cell number was more than 5 in each visual field, it was deemed as CGC positive and was marked with “+”)
CGC formation (Compound (I) 50 mg, macrolide (spiramycin) 900 mg): + (If cell length was more than 50 μm and cell number was more than 5 in each visual field, it was deemed as CGC positive and was marked with “+”)
CGC formation (Compound (I) 50 mg, macrolide (spiramycin) 1100 mg): + (If cell length was more than 50 μm and cell number was more than 5 in each visual field, it was deemed as CGC positive and was marked with “+”)
CGC formation (Compound (I) 50 mg, macrolide (spiramycin) 1300 mg): + (If cell length was more than 50 μm and cell number was more than 5 in each visual field, it was deemed as CGC positive and was marked with “+”)
CGC formation (Compound (I) 50 mg, macrolide (spiramycin) 1500 mg): + (If cell length was more than 50 μm and cell number was more than 5 in each visual field, it was deemed as CGC positive and was marked with “+”)
CGC formation (Compound (I) 100 mg, aminoglycoside (kanamycin, gentamycin) 50 mg): − (if cell length was not greater than 50 μm and cell number was within the range from 0 to 4 in each visual field, it was deemed as CGC negative and was marked with “−”)
CGC formation (Compound (I) 100 mg, aminoglycoside (kanamycin, gentamycin) 100 mg): − (if cell length was not greater than 50 μm and cell number was within the range from 0 to 4 in each visual field, it was deemed as CGC negative and was marked with “−”)
CGC formation (Compound (I) 100 mg, aminoglycoside (kanamycin, gentamycin) 150 mg): − (if cell length was not greater than 50 μm and cell number was within the range from 0 to 4 in each visual field, it was deemed as CGC negative and was marked with “−”)
CGC formation (Compound (I) 100 mg, aminoglycoside (kanamycin, gentamycin) 200 mg): + (If cell length was more than 50 μm and cell number was more than 5 in each visual field, it was deemed as CGC positive and was marked with “+”)
CGC formation (Compound (I) 100 mg, aminoglycoside (kanamycin, gentamycin) 300 mg): + (If cell length was more than 50 μm and cell number was more than 5 in each visual field, it was deemed as CGC positive and was marked with “+”)
CGC formation (Compound (I) 100 mg, aminoglycoside (kanamycin, gentamycin) 400 mg): + (If cell length was more than 50 μm and cell number was more than 5 in each visual field, it was deemed as CGC positive and was marked with “+”)
CGC formation (Compound (I) 100 mg, aminoglycoside (kanamycin, gentamycin) 500 mg): + (If cell length was more than 50 μm and cell number was more than 5 in each visual field, it was deemed as CGC positive and was marked with “+”)
CGC formation (Compound (I) 100 mg, macrolide (spiramycin) 300 mg): − (if cell length was not greater than 50 μm and cell number was within the range from 0 to 4 in each visual field, it was deemed as CGC negative and was marked with “−”)
CGC formation (Compound (I) 100 mg, macrolide (spiramycin) 500 mg): − (if cell length was not greater than 50 μm and cell number was within the range from 0 to 4 in each visual field, it was deemed as CGC negative and was marked with “−”)
CGC formation (Compound (I) 100 mg, macrolide (spiramycin) 700 mg): − (if cell length was not greater than 50 μm and cell number was within the range from 0 to 4 in each visual field, it was deemed as CGC negative and was marked with “−”)
CGC formation (Compound (I) 100 mg, macrolide (spiramycin) 900 mg): + (If cell length was more than 50 μm and cell number was more than 5 in each visual field, it was deemed as CGC positive and was marked with “+”)
CGC formation (Compound (I) 100 mg, macrolide (spiramycin) 1100 mg): + (If cell length was more than 50 μm and cell number was more than 5 in each visual field, it was deemed as CGC positive and was marked with “+”)
CGC formation (Compound (I) 100 mg, macrolide (spiramycin) 1300 mg): + (If cell length was more than 50 μm and cell number was more than 5 in each visual field, it was deemed as CGC positive and was marked with “+”)
CGC formation (Compound (I) 100 mg, macrolide (spiramycin) 1500 mg): + (If cell length was more than 50 μm and cell number was more than 5 in each visual field, it was deemed as CGC positive and was marked with “+”)
CGC formation (Compound (I) 150 mg, aminoglycoside (kanamycin, gentamycin) 50 mg): − (if cell length was not greater than 50 μm and cell number was within the range from 0 to 4 in each visual field, it was deemed as CGC negative and was marked with “−”)
CGC formation (Compound (I) 150 mg, aminoglycoside (kanamycin, gentamycin) 100 mg): − (if cell length was not greater than 50 μm and cell number was within the range from 0 to 4 in each visual field, it was deemed as CGC negative and was marked with “−”)
CGC formation (Compound (I) 150 mg, aminoglycoside (kanamycin, gentamycin) 150 mg): − (if cell length was not greater than 50 μm and cell number was within the range from 0 to 4 in each visual field, it was deemed as CGC negative and was marked with “−”)
CGC formation (Compound (I) 150 mg, aminoglycoside (kanamycin, gentamycin) 200 mg): − (if cell length was not greater than 50 μm and cell number was within the range from 0 to 4 in each visual field, it was deemed as CGC negative and was marked with “−”)
CGC formation (Compound (I) 150 mg, aminoglycoside (kanamycin, gentamycin) 300 mg): + (If cell length was more than 50 μm and cell number was more than 5 in each visual field, it was deemed as CGC positive and was marked with “+”)
CGC formation (Compound (I) 150 mg, aminoglycoside (kanamycin, gentamycin) 400 mg): + (If cell length was more than 50 μm and cell number was more than 5 in each visual field, it was deemed as CGC positive and was marked with “+”)
CGC formation (Compound (I) 150 mg, aminoglycoside (kanamycin, gentamycin) 500 mg): + (If cell length was more than 50 μm and cell number was more than 5 in each visual field, it was deemed as CGC positive and was marked with “+”)
CGC formation (Compound (I) 150 mg, macrolide (spiramycin) 300 mg): − (if cell length was not greater than 50 μm and cell number was within the range from 0 to 4 in each visual field, it was deemed as CGC negative and was marked with “−”)
